Calls of active or inactive are those of the source. No cut-off for these calls is given here.

Data set [1] concerns Mus musculus. Nature of the data set: Anticonvulsant activity in Swiss albino mouse assessed as inhibition of maximal electroshock-induced seizures at 300 mg/kg, ip administered 30 mins before electroshock measured after 0.5 hrs post electroshock. The format is functional, organism-based. Also noted: dose 300 mg/kg. Background: Protection in the maximal electroshock model is a classic sign of anticonvulsant action.

Data set [2] relates to Mus musculus. Nature of the data set: Neurotoxicity in Swiss albino mouse assessed as inability of animal to maintain equilibrium on the rod for at least 1 min at 300 mg/kg, ip after 4 hrs by rotarod test. The format is toxicity, organism-based. Also noted: dose 300 mg/kg, route intraperitoneal. The settings on record: in vivo. For orientation: Falling from the rotarod earlier than controls is read as motor impairment.

The next data set concerns Rattus norvegicus. Nature of the data set: Anticonvulsant activity in Wistar rat assessed as protection against hyperthermia-induced seizures at 100 mg/kg, ip relative to control. The format is functional. The settings on record: route intraperitoneal.
Data set [3] relates to Mus musculus. In words: Anticonvulsant activity in ip dosed Swiss albino mouse assessed as inhibition of subcutaneous pentylenetetrazole-induced seizures administered 30 mins before PTZ challenge measured after 4 hrs post PTZ challenge. The format is functional.
The test system of data set [4] is Mus musculus. Nature of the data set: Anticonvulsant activity in ip dosed Swiss albino mouse assessed as inhibition of subcutaneous picrotoxin-induced seizures administered 30 mins before PIC challenge measured after 0.5 hrs post PIC challenge. Format: functional.
Data set [5] has as its system Mus musculus. Nature of the data set: Anticonvulsant activity in Swiss albino mouse assessed as inhibition of subcutaneous strychnine-induced seizures at 300 mg/kg, ip administered 30 mins before STY challenge measured after 4 hrs post STY challenge. The format is functional, organism-based. Also noted: dose 300 mg/kg.
In data set [6] the test system is Mus musculus. In words: Neurotoxicity in Swiss albino mouse assessed as inability of animal to maintain equilibrium on the rod for at least 1 min at 300 mg/kg, ip after 0.5 hrs by rotarod test. Format: toxicity, organism-based. Also noted: dose 300 mg/kg, route intraperitoneal. The settings on record: in vivo.
The subject of data set [7] is Mus musculus. Nature of the data set: Anticonvulsant activity in Swiss albino mouse assessed as inhibition of subcutaneous pentylenetetrazole-induced seizures at 300 mg/kg, ip administered 30 mins before PTZ challenge measured after 0.5 hrs post PTZ challenge. Format: functional, organism-based. Also noted: dose 300 mg/kg.
Data set [8] deals with Mus musculus. Nature of the data set: Anticonvulsant activity in ip dosed Swiss albino mouse assessed as inhibition of subcutaneous strychnine-induced seizures administered 30 mins before STY challenge measured after 0.5 hrs post STY challenge. Format: functional.
In data set [9] the test system is Mus musculus. Nature of the data set: Anticonvulsant activity in ip dosed Swiss albino mouse assessed as inhibition of subcutaneous picrotoxin-induced seizures administered 30 mins before PIC challenge measured after 4 hrs post PIC challenge. Format: functional.
For data set [10], the system named is Mus musculus. In words: Anticonvulsant activity in Swiss albino mouse assessed as inhibition of subcutaneous pentylenetetrazole-induced seizures at 300 mg/kg, ip administered 30 mins before PTZ challenge measured after 4 hrs post PTZ challenge. The format is functional, organism-based. Also noted: dose 300 mg/kg.
Data set [11] relates to Mus musculus. Nature of the data set: Anticonvulsant activity in ip dosed Swiss albino mouse assessed as inhibition of subcutaneous pentylenetetrazole-induced seizures administered 30 mins before PTZ challenge measured after 0.5 hrs post PTZ challenge. The format is functional.
Data set [12] relates to Mus musculus. Nature of the data set: Anticonvulsant activity in ip dosed Swiss albino mouse assessed as inhibition of subcutaneous strychnine-induced seizures administered 30 mins before STY challenge measured after 4 hrs post STY challenge. Format: functional.
The subject of data set [13] is Mus musculus. In words: Neurotoxicity in ip dosed Swiss albino mouse assessed as inability of animal to maintain equilibrium on the rod for at least 1 min after 0.5 hrs by rotarod test. The format is toxicity, organism-based. The settings on record: in vivo.

Consider `O=C(O)CCCNC(=S)N/N=C/c1cccc([N+](=O)[O-])c1`, for which the outcome with Mus musculus [1], in the data set with Mus musculus [5] and with Mus musculus [7] was inactive. Also, the Activity entry with Mus musculus [2] is “Non-toxic”; in the data set on Rattus norvegicus, 51%; in the data set with Mus musculus [3] it was 300 mg/kg; with Mus musculus [4], 100 mg/kg; with Mus musculus [6], “Non-toxic”; in the data set with Mus musculus [8], 300 mg/kg. The Activity with Mus musculus [9] amounted to 100 mg/kg.
Consider `O=C(O)CCCNC(=S)N/N=C/c1ccc(Cl)cc1`, for which the result with Mus musculus [1] and in the data set with Mus musculus [10] was inactive. In addition, the Activity entry is “Non-toxic” in the data set with Mus musculus [2]; 49% with Rattus norvegicus; 100 mg/kg in the data set on Mus musculus [11]; 300 mg/kg with Mus musculus [12]; 300 mg/kg in the data set with Mus musculus [8]; 100 mg/kg with Mus musculus [13].

The values above are taken from ChEMBL document CHEMBL1154479, “Newer GABA derivatives for the treatment of epilepsy including febrile seizures: a bioisosteric approach” (Eur J Med Chem, 2008).
